Data: the supplement of paper PMC10307832

Assays:
Assay in all cases: relative viability (nuclei count vs DMSO), 5 days (fraction); higher = more cells survive
[1] = compound: CN(c1ncccc1CNc1nc(Nc2ccc3c(c2)CC(=O)N3)ncc1C(F)(F)F)S(C)(=O)=O + C[C@@H](Oc1cc(-c2cnn(C3CCNCC3)c2)cnc1N)c1c(Cl)ccc(F)c1Cl [Crizotinib] (partner 1 µM)
Summary of the method: (§1)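 Relative viability is defined as nuclei in treated wells over nuclei in vehicle wells. Duplicate plates were run and medians reported. Lung cancer cell lines in 1536-well plates were dosed by pin tool one day after seeding, with one drug or with a fixed anchor-drug dose plus five library-drug doses (not always all listed) in √10 steps, and nuclei were counted after 5 days.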

[2] = compound: CN(c1ncccc1CNc1nc(Nc2ccc3c(c2)CC(=O)N3)ncc1C(F)(F)F)S(C)(=O)=O + N=C(N)NC(=N)NCCc1ccccc1 [Phenformin] (partner 250 µM)
Summary of the method: as §1

[3] = compound: CN(c1ncccc1CNc1nc(Nc2ccc3c(c2)CC(=O)N3)ncc1C(F)(F)F)S(C)(=O)=O + CC1(C)CCC(c2ccc(Cl)cc2)=C(CN2CCN(c3ccc(C(=O)NS(=O)(=O)c4ccc(N[C@H](CCN5CCOCC5)CSc5ccccc5)c(S(=O)(=O)C(F)(F)F)c4)cc3)CC2)C1 [Navitoclax] (partner 0.5 µM)
Summary of the method: as §1

[4] = compound: CN(c1ncccc1CNc1nc(Nc2ccc3c(c2)CC(=O)N3)ncc1C(F)(F)F)S(C)(=O)=O + Nc1ncn([C@H]2C[C@H](O)[C@@H](CO)O2)c(=O)n1 [Decitabine] (partner 2 µM)
Summary of the method: as §1

| Cell Line | relative viability ([1]; first compound 0.01 µM) | relative viability ([1]; first compound 0.03162 µM) | relative viability ([1]; first compound 0.1 µM) | relative viability ([1]; first compound 0.3162 µM) | relative viability ([1]; first compound 1 µM) | relative viability ([2]; first compound 0.01 µM) | relative viability ([2]; first compound 0.03162 µM) | relative viability ([2]; first compound 0.1 µM) | relative viability ([2]; first compound 0.3162 µM) | relative viability ([2]; first compound 1 µM) | relative viability ([3]; first compound 0.01 µM) | relative viability ([3]; first compound 0.03162 µM) | relative viability ([3]; first compound 0.1 µM) | relative viability ([3]; first compound 0.3162 µM) | relative viability ([3]; first compound 1 µM) | relative viability ([4]; first compound 0.01 µM) | relative viability ([4]; first compound 0.03162 µM) | relative viability ([4]; first compound 0.1 µM) | relative viability ([4]; first compound 0.3162 µM) | relative viability ([4]; first compound 1 µM) |
| --- | --- | --- | --- | --- | --- | --- | --- | --- | --- | --- | --- | --- | --- | --- | --- | --- | --- | --- | --- | --- |
| NCI-H2085 | 0.94 | 0.799 | 0.742 | 0.778 | 0.648 | 0.743 | 0.781 | 0.644 | 0.775 | 0.627 | 1.09 | 1.17 | 1.13 | 1.19 | 0.934 | 0.545 | 0.577 | 0.547 | 0.548 | 0.522 |
| NCI-H2087 | 0.787 | 0.915 | 0.784 | 0.889 | 0.749 | 0.522 | 0.518 | 0.424 | 0.475 | 0.454 | 1.06 | 1.12 | 1.05 | 1.04 | 0.937 | 0.312 | 0.255 | 0.256 | 0.36 | 0.299 |
| NCI-H2126 | 1.03 | 1.09 | 0.975 | 0.942 | 0.916 | 0.515 | 0.514 | 0.456 | 0.527 | 0.491 | 0.838 | 0.893 | 0.849 | 0.894 | 0.776 | 0.623 | 0.615 | 0.564 | 0.557 | 0.53 |
| NCI-H2170 | 1.23 | 1.22 | 1.31 |  | 1.21 | 0.404 | 0.47 | 0.424 | 0.332 | 0.323 | 0.675 | 0.62 | 0.687 |  | 0.554 | 0.528 | 0.463 | 0.417 | 0.459 | 0.448 |
| NCI-H2347 | 0.698 | 0.692 | 0.61 | 0.661 | 0.658 | 0.37 | 0.38 | 0.6 | 0.407 | 0.221 | 0.879 | 0.69 | 0.699 | 0.701 | 0.592 | 0.655 | 0.598 | 0.587 | 0.593 | 0.57 |
| NCI-H2405 | 0.865 | 0.835 | 0.801 | 0.813 | 0.744 | 0.402 | 0.376 | 0.385 | 0.248 | 0.392 | 0.802 | 0.993 | 0.66 | 0.705 | 0.679 | 0.766 | 0.735 | 0.67 | 0.681 | 0.648 |
| NCI-H3122 | 0.283 | 0.289 | 0.283 | 0.278 | 0.241 | 0.389 | 0.373 | 0.36 | 0.317 | 0.354 | 1.07 | 1.01 | 0.941 | 0.977 | 0.936 | 0.445 | 0.423 | 0.395 | 0.429 | 0.403 |
| PC-3 [JPC-3] | 0.968 | 0.992 | 1.02 | 0.927 | 0.841 | 0.522 | 0.488 | 0.505 | 0.471 | 0.481 | 0.821 | 0.863 | 0.823 | 0.833 | 0.787 | 0.826 |  | 0.821 | 0.884 | 0.834 |
| PC-14 | 0.874 | 0.858 | 1.04 | 0.872 | 0.765 | 0.726 | 0.59 | 0.563 | 0.565 | 0.715 | 1.02 | 1.16 | 1.03 | 1.01 | 1.04 | 0.197 | 0.225 | 0.254 | 0.245 | 0.269 |
| RERF-LC-KJ | 0.841 | 0.823 | 0.85 | 0.779 | 0.86 | 0.409 | 0.458 | 0.419 | 0.463 | 0.412 | 0.966 | 1.05 | 0.862 | 0.956 | 0.693 | 0.651 | 0.71 | 0.645 | 0.793 | 0.764 |
| SK-LU-1 | 0.944 | 0.882 | 0.858 | 0.808 | 0.784 | 0.579 | 0.597 | 0.453 | 0.472 | 0.371 | 0.878 | 0.841 | 0.735 | 0.766 | 0.768 | 0.641 | 0.689 | 0.636 | 0.639 | 0.576 |
| SK-MES-1 | 0.943 | 0.989 | 0.944 | 0.983 | 0.846 | 0.698 | 0.63 | 0.658 | 0.596 | 0.513 | 1.3 | 1.18 | 1.21 | 1.2 | 0.97 | 0.441 | 0.467 | 0.465 | 0.36 | 0.363 |
| SW 1573 | 0.874 | 0.732 | 0.777 | 0.843 | 0.78 | 0.383 | 0.405 | 0.381 | 0.412 | 0.314 | 1.22 | 0.973 | 0.988 | 0.896 | 1.07 | 0.583 | 0.492 | 0.469 | 0.657 | 0.68 |
| UMC-11 | 0.59 | 0.584 | 0.654 | 0.476 | 0.298 | 0.333 | 0.366 | 0.334 | 0.314 | 0.262 | 0.321 | 0.296 | 0.313 | 0.297 | 0.235 | 0.568 | 0.681 | 0.626 | 0.838 | 0.628 |
